Experimental data published in ChEMBL document CHEMBL1201862, “PubChem BioAssay data set” (2004).
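Dose response: 5 concentrations. Exposure: 48 h. Format: 96-well plates. Endpoint: linear interpolation; highest concentration if not reached. GI50 marks 50% less growth.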 Activity calls are given as the source filed them. Rule as the data show it: active = GI50 up to about 1.1 µM and inactive = higher.

Tests used:
Experiment in all cases: DTP human tumour cell line panel, 48 h
U-251 = system: U-251
A549 = system: A549
OVCAR-5 = system: OVCAR-5
SK-MEL-28 = system: SK-MEL-28
NCI-H23 = system: NCI-H23
TK-10 = system: TK-10
EKVX = system: EKVX
COLO 205 = system: COLO 205
K562 = system: K562
NCI-H460 = system: NCI-H460
HT-29 = system: HT-29
MCF7 = system: MCF7
SK-MEL-2 = system: SK-MEL-2
SK-OV-3 = system: SK-OV-3
786-0 = system: 786-0
OVCAR-8 = system: OVCAR-8
NCI-H226 = system: NCI-H226
LOX IMVI = system: LOX IMVI
SNB-75 = system: SNB-75
MDA-N = system: MDA-N

SMILES | GI50 (U-251) | GI50 (A549) | GI50 (OVCAR-5) | GI50 (SK-MEL-28) | GI50 (NCI-H23) | GI50 (TK-10) | GI50 (EKVX) | GI50 (COLO 205) | GI50 (K562) | GI50 (NCI-H460) | GI50 (HT-29) | GI50 (MCF7) | GI50 (SK-MEL-2) | GI50 (SK-OV-3) | GI50 (786-0) | GI50 (OVCAR-8) | GI50 (NCI-H226) | GI50 (LOX IMVI) | GI50 (SNB-75) | GI50 (MDA-N)
COc1cc2c(cc1O)CCN[C@@]21CS[C@H]2c3c(OC(C)=O)c(C)c4c(c3C(COC1=O)N1C2C2NC(Cc3cc(C)c(OC)c(O)c32)[C@@H]1O)OCO4 (stereo partly specified) | < 0.01 µM (active) | < 0.01 µM (active) | < 0.01 µM (active) | < 0.01 µM (active) | < 0.01 µM (active) | < 0.01 µM (active) | < 0.01 µM (active) | < 0.01 µM (active) | < 0.01 µM (active) | < 0.01 µM (active) | < 0.01 µM (active) | < 0.01 µM (active) | < 0.01 µM (active) | < 0.01 µM (active) | < 0.01 µM (active) | < 0.01 µM (active) |  |  |  | 
Cc1cc([N+](=O)[O-])ccc1Nc1cccc(Cl)c1C | 16.3 µM (inactive) | 16.6 µM (inactive) | 14.7 µM (inactive) | 16.7 µM (inactive) | 17.1 µM (inactive) | 14.8 µM (inactive) | 20 µM (inactive) | 17 µM (inactive) | 11.3 µM (inactive) |  | 17.6 µM (inactive) |  | 14.9 µM (inactive) | 24.3 µM (inactive) | 14 µM (inactive) | 15.1 µM (inactive) | 18.9 µM (inactive) | 17.3 µM (inactive) | 19.2 µM (inactive) | 
CC1(C)c2ccccc2C(O)C12CCC(=O)CC2 (stereo unspecified) | > 100 µM (inactive) | 34 µM (inactive) | > 100 µM (inactive) | > 100 µM (inactive) | > 100 µM (inactive) | > 100 µM (inactive) | > 100 µM (inactive) | > 100 µM (inactive) | > 100 µM (inactive) | > 100 µM (inactive) | > 100 µM (inactive) |  | > 100 µM (inactive) | > 100 µM (inactive) | > 100 µM (inactive) |  | > 100 µM (inactive) | > 100 µM (inactive) |  | > 100 µM (inactive)
O=C(OC1CCC2OOC1O2)c1ccc([N+](=O)[O-])cc1 (stereo unspecified) | > 100 µM (inactive) | > 100 µM (inactive) | > 100 µM (inactive) | > 100 µM (inactive) | > 100 µM (inactive) | > 100 µM (inactive) | > 100 µM (inactive) | > 100 µM (inactive) | > 100 µM (inactive) | > 100 µM (inactive) | > 100 µM (inactive) |  | > 100 µM (inactive) | > 100 µM (inactive) | > 100 µM (inactive) | > 100 µM (inactive) | > 100 µM (inactive) | > 100 µM (inactive) | > 100 µM (inactive) | 
C[n+]1c2ccccc2c(/C=N\NS(=O)(=O)c2ccc(O)c(C(=O)O)c2)c2ccccc21 | 94 µM (inactive) | 23.4 µM (inactive) | > 100 µM (inactive) | 61.7 µM (inactive) | 91.4 µM (inactive) | > 100 µM (inactive) | 78.9 µM (inactive) |  | 27.5 µM (inactive) | 36.2 µM (inactive) | 35.3 µM (inactive) |  | 63.5 µM (inactive) | > 100 µM (inactive) | 34.4 µM (inactive) | 43.7 µM (inactive) | 26.1 µM (inactive) | 12.9 µM (inactive) | 34.2 µM (inactive) | 
COC(=O)C1C=CCON2CCc3c(n(C)c4ccccc34)C12 (stereo unspecified) | > 100 µM (inactive) | > 100 µM (inactive) | > 100 µM (inactive) | > 100 µM (inactive) | > 100 µM (inactive) | > 100 µM (inactive) | 92.3 µM (inactive) | > 100 µM (inactive) | > 100 µM (inactive) | > 100 µM (inactive) | > 100 µM (inactive) |  | > 100 µM (inactive) | > 100 µM (inactive) | > 100 µM (inactive) |  | > 100 µM (inactive) | > 100 µM (inactive) | 88.1 µM (inactive) | 
Cc1ccc(/C=C2\CCCCCC2=O)cc1 | > 100 µM (inactive) | > 100 µM (inactive) | > 100 µM (inactive) | > 100 µM (inactive) | > 100 µM (inactive) | > 100 µM (inactive) | > 100 µM (inactive) | > 100 µM (inactive) | > 100 µM (inactive) | > 100 µM (inactive) | > 100 µM (inactive) |  | > 100 µM (inactive) | > 100 µM (inactive) | > 100 µM (inactive) |  | > 100 µM (inactive) | > 100 µM (inactive) | > 100 µM (inactive) | > 100 µM (inactive)
O=c1c(C(c2ccco2)c2c(O)oc3ccccc3c2=O)c(O)oc2ccccc12 | 27.2 µM (inactive) |  |  | 21.2 µM (inactive) | > 100 µM (inactive) | 26.7 µM (inactive) | 47 µM (inactive) | 22.3 µM (inactive) | 38.6 µM (inactive) | > 100 µM (inactive) | 47.6 µM (inactive) |  | 51.6 µM (inactive) |  | 25.1 µM (inactive) | 27.4 µM (inactive) | 64.9 µM (inactive) | 28.2 µM (inactive) | 28.1 µM (inactive) | 22.6 µM (inactive)
